{"source": "patent US20080009418A1", "about": "“Selective Inhibitors” (Alchemia LTD., priority 2004, published 2008)", "settings_in_all_cases": "compound at 10 μM", "key": {"Human opioid (ORL1)": {"molecular_target": "T1, Human opioid (ORL1) (Homo sapiens, UniProt P41146)", "T1 construct": "purchased Perkin Elmer Biosignal", "T1 sequence (P41146 whole entry)": "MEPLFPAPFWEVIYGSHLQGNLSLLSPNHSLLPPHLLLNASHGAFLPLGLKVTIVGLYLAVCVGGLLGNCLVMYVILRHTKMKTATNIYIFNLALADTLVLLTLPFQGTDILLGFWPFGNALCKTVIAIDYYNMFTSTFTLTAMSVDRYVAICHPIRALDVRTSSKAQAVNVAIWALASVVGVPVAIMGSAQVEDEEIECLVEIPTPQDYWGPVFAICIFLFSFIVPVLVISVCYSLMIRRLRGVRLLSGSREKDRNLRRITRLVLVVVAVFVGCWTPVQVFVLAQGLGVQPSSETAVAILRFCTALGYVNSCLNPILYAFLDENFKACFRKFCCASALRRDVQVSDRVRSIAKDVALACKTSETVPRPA", "test": "Radioligand binding, human opioid ORL1 membranes, FlashPlate, [125I]-Nociceptin", "how_it_was_run": "(§1)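 Cloned human receptor membranes were coated onto FlashPlate wells and incubated with radioligand and compound (added from a 0.5 mM DMSO daughter plate) for 1 hour at room temperature in the dark. Scintillation counting gave percent inhibition, with DMSO defining total and reference ligand defining non-specific binding.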"}, "Human Melanocortin (MC4)": {"molecular_target": "T2, Human Melanocortin (MC4) (Homo sapiens, UniProt P32245)", "T2 construct": "purchased Perkin Elmer Biosignal", "T2 sequence (P32245 whole entry)": "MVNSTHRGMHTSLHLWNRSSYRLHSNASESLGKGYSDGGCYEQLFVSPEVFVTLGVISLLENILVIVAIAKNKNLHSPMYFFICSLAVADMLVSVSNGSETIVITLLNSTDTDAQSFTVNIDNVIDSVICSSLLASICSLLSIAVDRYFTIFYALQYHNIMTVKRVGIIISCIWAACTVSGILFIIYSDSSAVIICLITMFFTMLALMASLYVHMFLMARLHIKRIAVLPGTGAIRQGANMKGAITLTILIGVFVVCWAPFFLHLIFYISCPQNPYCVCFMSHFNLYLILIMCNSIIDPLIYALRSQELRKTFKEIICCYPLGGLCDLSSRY", "test": "Radioligand binding, human melanocortin MC4 membranes, FlashPlate, [125I]-NDP-αMSH", "how_it_was_run": "as §1"}, "Human μ-opioid (MOP)": {"molecular_target": "T3, Human μ-opioid (MOP) (Homo sapiens, UniProt P35372)", "T3 construct": "purchased Perkin Elmer Biosignal", "T3 sequence (P35372 whole entry)": "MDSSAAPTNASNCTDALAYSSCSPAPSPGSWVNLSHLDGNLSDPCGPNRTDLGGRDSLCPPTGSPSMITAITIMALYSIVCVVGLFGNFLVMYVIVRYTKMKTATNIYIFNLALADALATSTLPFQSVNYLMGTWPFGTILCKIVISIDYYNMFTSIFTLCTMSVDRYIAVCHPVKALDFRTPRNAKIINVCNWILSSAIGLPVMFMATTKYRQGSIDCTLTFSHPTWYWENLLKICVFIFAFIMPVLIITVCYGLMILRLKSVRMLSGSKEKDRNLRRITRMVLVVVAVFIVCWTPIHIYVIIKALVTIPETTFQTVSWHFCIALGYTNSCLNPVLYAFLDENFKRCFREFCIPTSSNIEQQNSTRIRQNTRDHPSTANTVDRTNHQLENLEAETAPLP", "test": "Radioligand binding, human μ-opioid (MOP) membranes, FlashPlate, [3H]-Naloxone", "how_it_was_run": "as §1"}, "Human δ-opioid (DOP)": {"molecular_target": "T4, Human δ-opioid (DOP) (Homo sapiens, UniProt P41143)", "T4 construct": "purchased Perkin Elmer Biosignal", "T4 sequence (P41143 whole entry)": "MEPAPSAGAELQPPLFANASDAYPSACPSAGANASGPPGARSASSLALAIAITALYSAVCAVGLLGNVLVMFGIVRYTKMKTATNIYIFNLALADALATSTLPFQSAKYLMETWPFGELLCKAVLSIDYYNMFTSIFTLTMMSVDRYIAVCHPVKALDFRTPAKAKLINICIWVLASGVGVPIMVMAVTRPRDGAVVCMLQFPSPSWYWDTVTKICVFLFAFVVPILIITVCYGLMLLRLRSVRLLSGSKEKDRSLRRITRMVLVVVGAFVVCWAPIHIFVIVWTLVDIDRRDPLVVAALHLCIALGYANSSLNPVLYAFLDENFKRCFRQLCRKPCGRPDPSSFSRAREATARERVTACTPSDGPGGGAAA", "test": "Radioligand binding, human δ-opioid (DOP) membranes, FlashPlate, [3H]-Bremazocine", "how_it_was_run": "as §1"}, "Human neurokinin (NK1)": {"molecular_target": "T5, Human neurokinin (NK1) (Homo sapiens, UniProt P25103)", "T5 construct": "purchased Perkin Elmer Biosignal", "T5 sequence (P25103 whole entry)": "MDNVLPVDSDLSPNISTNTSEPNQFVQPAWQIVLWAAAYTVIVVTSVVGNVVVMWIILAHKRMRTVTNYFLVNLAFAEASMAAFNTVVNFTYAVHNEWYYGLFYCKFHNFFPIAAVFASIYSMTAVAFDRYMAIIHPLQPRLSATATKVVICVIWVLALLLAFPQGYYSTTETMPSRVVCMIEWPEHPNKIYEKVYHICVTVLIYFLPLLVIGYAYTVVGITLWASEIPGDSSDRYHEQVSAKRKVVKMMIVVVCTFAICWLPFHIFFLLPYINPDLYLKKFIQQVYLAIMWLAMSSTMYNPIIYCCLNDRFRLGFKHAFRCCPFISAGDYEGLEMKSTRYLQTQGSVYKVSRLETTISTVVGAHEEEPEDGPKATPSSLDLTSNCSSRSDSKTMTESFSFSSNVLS", "test": "Radioligand binding, human neurokinin NK1 membranes, filtration, [125I]-Substance P", "how_it_was_run": "(§2)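 Percent inhibition of radioligand binding measured on recombinant human membranes: NK1 with [125I]-Substance P, KOP with [3H]-Diprenorphine. Incubation 1 h at room temperature, then harvest onto 0.3% PEI-soaked filters, cold Tris-HCl pH 7.4 washes and scintillation counting; non-specific binding from reference ligand wells.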"}, "[1]": {"molecular_target": "T6, Human melanin-concentrating hormone (MCH1) (Homo sapiens, UniProt Q99705)", "T6 construct": "purchased Perkin Elmer Biosignal", "T6 sequence (Q99705 whole entry)": "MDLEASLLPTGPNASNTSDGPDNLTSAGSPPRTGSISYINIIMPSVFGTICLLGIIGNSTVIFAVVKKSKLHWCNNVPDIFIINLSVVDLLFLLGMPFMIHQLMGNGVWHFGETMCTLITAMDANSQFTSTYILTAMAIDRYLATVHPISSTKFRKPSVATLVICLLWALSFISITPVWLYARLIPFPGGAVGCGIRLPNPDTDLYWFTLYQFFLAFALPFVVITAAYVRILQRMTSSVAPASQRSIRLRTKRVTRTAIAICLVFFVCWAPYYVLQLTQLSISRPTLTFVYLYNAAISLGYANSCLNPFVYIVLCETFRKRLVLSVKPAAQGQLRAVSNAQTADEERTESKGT", "test": "Radioligand binding, human melanin-concentrating hormone MCH1 membranes, FlashPlate, [125I]-S36057", "how_it_was_run": "as §1"}, "Human Melanocortin (MC3)": {"molecular_target": "T7, Human Melanocortin (MC3) (Homo sapiens, UniProt P41968)", "T7 construct": "purchased Perkin Elmer Biosignal", "T7 sequence (P41968 whole entry)": "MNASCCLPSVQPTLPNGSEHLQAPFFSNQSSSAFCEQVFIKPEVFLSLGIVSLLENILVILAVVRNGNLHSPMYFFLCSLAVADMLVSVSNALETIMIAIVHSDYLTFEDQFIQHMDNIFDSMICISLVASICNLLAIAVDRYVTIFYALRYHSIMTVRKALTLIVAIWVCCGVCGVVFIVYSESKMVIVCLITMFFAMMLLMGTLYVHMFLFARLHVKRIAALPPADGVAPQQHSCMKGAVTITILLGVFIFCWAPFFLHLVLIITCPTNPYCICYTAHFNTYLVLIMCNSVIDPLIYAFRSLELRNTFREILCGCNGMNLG", "test": "Radioligand binding, human melanocortin MC3 membranes, FlashPlate, [125I]-NDP-αMSH", "how_it_was_run": "as §1"}, "Mouse urotensin (mUR2)": {"molecular_target": "T8, Mouse urotensin (mUR2) (Mus musculus, UniProt Q8VIH9)", "T8 construct": "purchased Perkin Elmer Biosignal", "T8 sequence (Q8VIH9 1-385)": "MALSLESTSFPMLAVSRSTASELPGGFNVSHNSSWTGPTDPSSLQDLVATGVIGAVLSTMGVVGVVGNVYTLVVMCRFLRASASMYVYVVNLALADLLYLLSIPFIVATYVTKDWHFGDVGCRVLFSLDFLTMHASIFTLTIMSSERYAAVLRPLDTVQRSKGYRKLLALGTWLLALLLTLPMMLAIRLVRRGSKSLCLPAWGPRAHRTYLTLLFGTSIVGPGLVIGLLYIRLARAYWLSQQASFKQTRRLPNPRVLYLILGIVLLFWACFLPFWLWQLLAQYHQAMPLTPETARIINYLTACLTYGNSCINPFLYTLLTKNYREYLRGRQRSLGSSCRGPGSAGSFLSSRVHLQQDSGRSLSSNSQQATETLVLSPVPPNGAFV", "test": "Radioligand binding, mouse urotensin mUR2 membranes, FlashPlate, [125I]-Urotensin II", "how_it_was_run": "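Cloned mouse urotensin (mUR2) receptor membranes from Perkin Elmer Biosignal were immobilized in FlashPlate microplates using a proprietary coating. Each well got 19.5 μl buffer, then 0.5 μl of DMSO, reference ligand, or compound. Adding 5 μl of [125I]-Urotensin II, diluted to 5× final concentration in binding buffer, started binding. Plates were sealed with TopSeal-A and incubated 1 hour at room temperature in the dark. Wells were counted for 30 seconds each on a TopCount after a 60-second delay, and percentage inhibition was calculated.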"}, "Human melanocortin (MC5)": {"molecular_target": "T9, Human melanocortin (MC5) (Homo sapiens, UniProt P33032)", "T9 construct": "purchased Perkin Elmer Biosignal", "T9 sequence (P33032 whole entry)": "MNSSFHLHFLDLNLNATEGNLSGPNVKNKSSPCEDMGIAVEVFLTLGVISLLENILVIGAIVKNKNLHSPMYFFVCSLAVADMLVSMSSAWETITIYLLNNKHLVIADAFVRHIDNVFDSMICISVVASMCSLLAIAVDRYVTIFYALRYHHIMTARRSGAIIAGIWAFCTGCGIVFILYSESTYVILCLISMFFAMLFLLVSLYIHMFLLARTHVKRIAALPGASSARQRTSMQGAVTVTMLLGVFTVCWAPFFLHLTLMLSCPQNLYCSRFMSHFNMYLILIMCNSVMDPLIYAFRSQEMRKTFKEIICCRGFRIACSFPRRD", "test": "Radioligand binding, human melanocortin MC5 membranes, FlashPlate, [125I]-NDP-αMSH", "how_it_was_run": "as §1"}, "Human κ-Opioid (KOP)": {"molecular_target": "T10, Human κ-Opioid (KOP) (Homo sapiens, UniProt P41145)", "T10 construct": "purchased Perkin Elmer Biosignal", "T10 sequence (P41145 whole entry)": "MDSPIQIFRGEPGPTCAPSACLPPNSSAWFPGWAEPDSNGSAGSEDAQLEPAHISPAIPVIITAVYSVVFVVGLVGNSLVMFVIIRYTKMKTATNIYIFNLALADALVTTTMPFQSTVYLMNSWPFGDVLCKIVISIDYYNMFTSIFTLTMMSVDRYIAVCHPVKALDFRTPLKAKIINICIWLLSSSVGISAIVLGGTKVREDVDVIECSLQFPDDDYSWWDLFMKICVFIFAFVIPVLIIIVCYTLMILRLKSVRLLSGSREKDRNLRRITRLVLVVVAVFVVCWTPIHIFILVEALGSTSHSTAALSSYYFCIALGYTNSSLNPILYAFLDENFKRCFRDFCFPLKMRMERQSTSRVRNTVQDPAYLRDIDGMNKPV", "test": "Radioligand binding, human κ-opioid (KOP) membranes, filtration, [3H]-Diprenorphine", "how_it_was_run": "as §2"}, "[2]": {"molecular_target": "T11, Human neuropeptide Y (NPY-Y1) (Homo sapiens, UniProt P25929)", "T11 construct": "purchased Perkin Elmer Biosignal", "T11 sequence (P25929 1-384)": "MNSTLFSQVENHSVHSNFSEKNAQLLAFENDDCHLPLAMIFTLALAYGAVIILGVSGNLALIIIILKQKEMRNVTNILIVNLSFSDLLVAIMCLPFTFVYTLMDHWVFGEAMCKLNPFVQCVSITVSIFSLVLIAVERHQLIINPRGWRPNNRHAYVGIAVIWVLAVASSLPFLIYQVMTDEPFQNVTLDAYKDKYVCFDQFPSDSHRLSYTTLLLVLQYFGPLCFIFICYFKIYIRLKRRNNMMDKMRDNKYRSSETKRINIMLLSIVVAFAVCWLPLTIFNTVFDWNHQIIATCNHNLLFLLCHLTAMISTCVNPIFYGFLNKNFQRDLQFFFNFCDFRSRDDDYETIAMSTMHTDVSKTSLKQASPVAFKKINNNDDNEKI", "test": "Radioligand binding, human neuropeptide Y NPY-Y1 membranes, FlashPlate, [125I]-PYY", "how_it_was_run": "as §1"}}}
{"smiles": "NCCC(=O)NC1C(OCc2ccc(Cl)cc2)OC(COCc2ccc(Cl)cc2)C(O)C1OCc1ccc(Cl)cc1", "note": "(single isomer, unassigned) [compound 476]", "values": [{"measurement": "A10: inhibition of radioligand binding, human opioid (ORL1)", "setting": "Human opioid (ORL1); [125I]-Nociceptin", "value": "+ (“+” indicates greater than 50% inhibition at 10 μM)"}, {"measurement": "A4: inhibition of radioligand binding, human melanocortin (MC4)", "setting": "Human Melanocortin (MC4); [125I]-NDP-αMSH", "value": "+ (“+” indicates greater than 50% inhibition at 10 μM)"}, {"measurement": "A7: inhibition of radioligand binding, human μ-opioid (MOP)", "setting": "Human μ-opioid (MOP); [3H]-Naloxone", "value": "+ (“+” indicates greater than 50% inhibition at 10 μM)"}, {"measurement": "A1: inhibition of radioligand binding, human δ-opioid (DOP)", "setting": "Human δ-opioid (DOP); [3H]-Bremazocine", "value": "− (“−” indicates less than 50% inhibition at 10 μM)"}, {"measurement": "A8: inhibition of radioligand binding, human neurokinin (NK1)", "setting": "Human neurokinin (NK1); [125I]-Substance P", "value": "+ (“+” indicates greater than 50% inhibition at 10 μM)"}, {"measurement": "A6: inhibition of radioligand binding, human melanin-concentrating hormone (MCH1)", "setting": "[1]; [125I]-S36057", "value": "+ (“+” indicates greater than 50% inhibition at 10 μM)"}, {"measurement": "A3: inhibition of radioligand binding, human melanocortin (MC3)", "setting": "Human Melanocortin (MC3); [125I]-NDP-αMSH", "value": "+ (“+” indicates greater than 50% inhibition at 10 μM)"}, {"measurement": "A11: inhibition of radioligand binding, mouse urotensin (mUR2)", "setting": "Mouse urotensin (mUR2); [125I]-Urotensin II", "value": "− (“−” indicates less than 50% inhibition at 10 μM)"}, {"measurement": "A5: inhibition of radioligand binding, human melanocortin (MC5)", "setting": "Human melanocortin (MC5); [125I]-NDP-αMSH", "value": "+ (“+” indicates greater than 50% inhibition at 10 μM)"}, {"measurement": "A2: inhibition of radioligand binding, human κ-opioid (KOP)", "setting": "Human κ-Opioid (KOP); [3H]-Diprenorphine", "value": "− (“−” indicates less than 50% inhibition at 10 μM)"}, {"measurement": "A9: inhibition of radioligand binding, human neuropeptide Y (NPY-Y1)", "setting": "[2]; [125I]-PYY", "value": "− (“−” indicates less than 50% inhibition at 10 μM)"}]}
{"smiles": "COC[C@H]1OC(OCc2ccc(Cl)cc2)[C@H](NC(=O)CCNC(=N)N)[C@@H](OCc2ccc(Cl)cc2)[C@@H]1O", "note": "(stereo partly shown) [compound 38]", "values": [{"measurement": "A10 radioligand binding inhibition", "setting": "Human opioid (ORL1); human ORL1 membranes", "value": "− (“−” indicates less than 50% inhibition at 10 μM)"}, {"measurement": "A4 radioligand binding inhibition", "setting": "Human Melanocortin (MC4); human melanocortin MC4 membranes", "value": "− (“−” indicates less than 50% inhibition at 10 μM)"}, {"measurement": "A7 radioligand binding inhibition", "setting": "Human μ-opioid (MOP); human μ-opioid (MOP) membranes", "value": "− (“−” indicates less than 50% inhibition at 10 μM)"}, {"measurement": "A1 radioligand binding inhibition", "setting": "Human δ-opioid (DOP); human δ-opioid (DOP) membranes", "value": "− (“−” indicates less than 50% inhibition at 10 μM)"}, {"measurement": "A8 radioligand binding inhibition", "setting": "Human neurokinin (NK1); human neurokinin NK1 membranes", "value": "+ (“+” indicates greater than 50% inhibition at 10 μM)"}, {"measurement": "A6 radioligand binding inhibition", "setting": "[1]; human MCH1 membranes", "value": "+ (“+” indicates greater than 50% inhibition at 10 μM)"}, {"measurement": "A3 radioligand binding inhibition", "setting": "Human Melanocortin (MC3); human melanocortin MC3 membranes", "value": "− (“−” indicates less than 50% inhibition at 10 μM)"}, {"measurement": "A11 radioligand binding inhibition", "setting": "Mouse urotensin (mUR2); mouse urotensin mUR2 membranes", "value": "− (“−” indicates less than 50% inhibition at 10 μM)"}, {"measurement": "A5 radioligand binding inhibition", "setting": "Human melanocortin (MC5); human melanocortin MC5 membranes", "value": "+ (“+” indicates greater than 50% inhibition at 10 μM)"}, {"measurement": "A2 radioligand binding inhibition", "setting": "Human κ-Opioid (KOP); human κ-opioid (KOP) membranes", "value": "− (“−” indicates less than 50% inhibition at 10 μM)"}, {"measurement": "A9 radioligand binding inhibition", "setting": "[2]; human NPY-Y1 membranes", "value": "− (“−” indicates less than 50% inhibition at 10 μM)"}]}
